Read-outs that look alike come from different tables or passages of the source.
Columns and labels:
[1] = system: M. intracellulare; assay: 45 hr MIC against M. intracellulare (NTM); format: cell-based, Mycobacterium intracellulare; conditions: M. intracellulare (Cuttino and McCabe) Runyon ATCC 13950
[2] = system: M. kansasii Hauduroy ATCC 12478; assay: 45 hr MIC against M. kansasii (NTM), Mueller Hinton broth; format: cell-based, Mycobacterium kansasii
[3] = system: M. fortuitum; assay: 45 hr MIC against M. fortuitum (NTM); format: cell-based, Mycobacterium fortuitum; conditions: M. fortuitum subsp. Fortuitum da Costa Cruz. ATCC 6841
[4] = system: Klebsiella pneumoniae; format: cell-based; conditions: for MIC50 / MIC100 / MIC Range: K. pneumoniae isolates (n per peptide in table); for MIC: Klebsiella pneumoniae HM-44, CAA supplemented with human serum
Procedure: (§1) Determination of Minimal Inhibitory Concentrations (MIC).
(§2) Additional MIC testing was performed for several peptides against the ESKAPE pathogens Escherichia coli, Enterobacter cloacae, Klebsiella pneumoniae, and Acinetobacter baumannii, in CAA supplemented with human serum (Table D).

[5] = system: S. maltophilia; assay: MIC against S. maltophilia isolates; format: cell-based, Stenotrophomonas maltophilia; conditions: S. maltophilia isolates (n per peptide in table)
Procedure: as §1
In addition to the results discussed above in Example 3, further testing was conducted on several Chp peptides. MIC values were determined against different species, including P. aeruginosa, K. pneumoniae, A. baumannii, E. cloacae, E. coli, and S. maltophilia, and the results are presented below in Tables 40-45, wherein n=number of isolates tested for each species and MIC is measured as μg/mL.

[6] = system: Acinetobacter baumannii; assay: microbe, parasite or virus in culture; format: cell-based; conditions: for MIC50 / MIC100 / MIC Range: A. baumannii isolates (n per peptide in table); for MIC: Acinetobacter baumannii ATCC BAA 747, CAA supplemented with human serum
[7] = system: Pseudomonas aeruginosa; assay: microbe, parasite or virus in culture; format: cell-based; conditions: P. aeruginosa isolates (n per peptide in table)
[8] = system: M. scrofulaceum; assay: 45 hr MIC against M. scrofulaceum (NTM); format: cell-based, Mycobacterium scrofulaceum; conditions: M. scrofulaceum Prissick and Masson ATCC 19981
[9] = system: M. smegmatis; assay: 45 hr MIC against M. smegmatis (NTM), Mueller Hinton broth; format: cell-based, Mycobacterium smegmatis
[10] = system: M. avium; assay: 45 hr MIC against M. avium (NTM); format: cell-based, Mycobacterium avium; conditions: M. avium Chester ATCC 700898
[11] = system: Mycobacterium tuberculosis strains
Procedure: MIC values for various Chp peptides were determined using the CLSI method for broth microdilution in 96-well microtiter format.
Next, MIC values for various Chp peptides were determined using the CLSI method above for broth microdilution in 96-well microtiter format for two different Mycobacterium tuberculosis strains. The MIC was determined as explained above for the NTM strains.

[12] = Stability assessment in 100% CAA; format: in vitro ADME; set-up: unit not given beside the values
Procedure: Stability was assessed after incubation in 100% human serum at 37° C. after 10 minutes, 1 hour, and 2 hours.
Stability assessment was further conducted in 100% CAA and rabbit serum using the same methodology discussed above.

[13] = system: carbapenem-resistant P. aeruginosa clinical isolate CFS-1292; assay: MIC by modified CLSI broth microdilution against P. aeruginosa CFS-1292 (CAA, CAA + human serum); format: cell-based, Pseudomonas aeruginosa; conditions: for MIC (μg/mL) against CFS-1292 in 100% CAA (1st run/2nd run): 1st run or single value
[14] = system: carbapenem-resistant bacterial strains; assay: organism not typed; format: cell-based
Excerpt: as §1

[15] = system: Escherichia coli; assay: microbe, parasite or virus in culture; format: cell-based; conditions: for MIC: Escherichia coli ATCC 25922, CAA supplemented with human serum
Procedure: as §1, §2

[16] = system: Enterobacter cloacae; assay: microbe, parasite or virus in culture; format: cell-based; conditions: for MIC: Enterobacter cloacae ATCC 13047, CAA supplemented with human serum
Procedure: as §1, §2

[17] = Mycobacterium tuberculosis (Zopf) Lehmann and Neumann ATCC 25177
[18] = Mycobacterium tuberculosis (Zopf) Lehmann and Neumann ATCC 35817
[19] = carbapenem-resistant isolate PA19
[20] = carbapenem-resistant isolate PA20
[21] = carbapenem-resistant isolate PA21
[22] = carbapenem-resistant isolate PA22
[23] = carbapenem-resistant isolate PA23
[24] = carbapenem-resistant isolate PA24
[25] = carbapenem-resistant isolate WLC-452
[26] = E. coli isolates (n per peptide in table)
[27] = E. cloacae isolates (n per peptide in table)

Sequence | 45 hr MIC [1] | 45 hr MIC [2] | 45 hr MIC [3] | MIC50 [4] | MIC100 [4] | MIC50 [5] | MIC100 [5] | MIC50 [6] | MIC100 [6] | MIC Range [6] | MIC50 [7] | 45 hr MIC [8] | 45 hr MIC ([9]; M. smegmatis MC^2 155, Run #1) | 45 hr MIC ([9]; M. smegmatis MC^2 155, Run #2) | 45 hr MIC [10] | MIC [11, 17] | MIC [11, 18] | MIC (100% CAA) [12] | MIC (μg/mL) against CFS-1292 in 100% CAA (1st run/2nd run) [13] | MIC (μg/mL) against CFS-1292 in CAA + […] human serum [13] | further results
MAKKIRNKARDRRIFTRTASRMHKANRTPRFMRGGIRL [ALCES1] | 2 µg/mL | 2 µg/mL | 4 µg/mL | >8 µg/mL | >8 µg/mL | 4 µg/mL | 8 µg/mL | 2 µg/mL | 2 µg/mL | 1 to 2 µg/mL | >8 µg/mL | 2 µg/mL | 1 µg/mL | 2 µg/mL | 8 µg/mL | 32 µg/mL | 8 µg/mL |  |  |  | MIC100 [7]: >8 µg/mL
MAYRGFKTSRVVKHRVRRRWFNHRRRYR [Spi1] | 4 µg/mL | 0.5 µg/mL | 8 µg/mL | 2 µg/mL | 4 µg/mL | 2 µg/mL | 2 µg/mL | 1 µg/mL | 1 µg/mL | 1 µg/mL | 4 µg/mL | 2 µg/mL | 2 µg/mL | 16 µg/mL | >64 µg/mL | 32 µg/mL | 16 µg/mL | 1 | 2 µg/mL | 0.25 µg/mL | MIC Range [4]: 2 to 4 µg/mL; MIC100 [7]: 8 µg/mL; MIC Range [7]: 2 to 8 µg/mL; MIC [14, 19]: 2 µg/mL; MIC [14, 20]: 4 µg/mL; MIC [14, 21]: 8 µg/mL; MIC [14, 22]: 4 µg/mL; MIC [14, 23]: 8 µg/mL; MIC [14, 24]: 4 µg/mL; MIC [14, 25]: 2 µg/mL
MIVRRHKMSRRRSRKLFSKTASRTRSKNLRSRPMRGGYRI [Unp4] | 4 µg/mL | 4 µg/mL | 4 µg/mL |  |  |  |  |  |  |  |  | 4 µg/mL |  | 16 µg/mL | 1 µg/mL | 32 µg/mL | 16 µg/mL |  | 2 µg/mL | >16 µg/mL | 
MKMRKRTDKRVFTRTAAKSKKVNIAPKIFRGGIRL [Unp1] | 32 µg/mL | 8 µg/mL | 8 µg/mL |  |  |  |  |  |  |  |  | 8 µg/mL | 4 µg/mL | 2 µg/mL | 1 µg/mL |  |  | 4 | 4 µg/mL | 4 µg/mL | MIC [4]: 8 µg/mL; MIC [6]: 8 µg/mL; MIC [15]: 0.5 µg/mL; MIC [16]: >32 µg/mL
MRPVKRSRVNKARSAGKFRKQVGKTKMANLRSNPMRGGWRL [HH3930] | 16 µg/mL | 32 µg/mL | 8 µg/mL |  |  |  |  |  |  |  |  | 16 µg/mL | 4 µg/mL | 16 µg/mL | 4 µg/mL |  |  | 2 | 2 µg/mL | 4 µg/mL | 
MRRKKMSRGKSKKLFRRTAKRVHRKNLRARPMRGGIRM [AVQ206] | 4 µg/mL | 2 µg/mL | 2 µg/mL |  |  |  |  |  |  |  |  | 4 µg/mL | 4 µg/mL | 16 µg/mL | 1 µg/mL |  |  | <0.25 | 0.5 µg/mL | 0.25 µg/mL | 
MRRKVKNTKRHQWRLTHSARSIKRANIMPSNPRGGRRF [Spi2] | >64 µg/mL | 1 µg/mL | 4 µg/mL | >8 µg/mL | >8 µg/mL | >8 µg/mL | >8 µg/mL | 2 µg/mL | 2 µg/mL | 2 to 8 µg/mL | >8 µg/mL | 8 µg/mL | 4 µg/mL | 4 µg/mL | >64 µg/mL | 8 µg/mL | 8 µg/mL | 4 | 16 µg/mL | 0.25 µg/mL | MIC Range [4]: >8 µg/mL; MIC [4]: 16 µg/mL; MIC Range [5]: >8 µg/mL; MIC [6]: 16 µg/mL; MIC100 [7]: >8 µg/mL; MIC Range [7]: >8 µg/mL; MIC [14, 19]: >8 µg/mL; MIC [14, 20]: >8 µg/mL; MIC [14, 21]: >8 µg/mL; MIC [14, 22]: >8 µg/mL; MIC [14, 23]: >8 µg/mL; MIC [14, 24]: >8 µg/mL; MIC [14, 25]: >8 µg/mL; MIC50 [15, 26]: 4 µg/mL; MIC100 [15, 26]: >8 µg/mL; MIC [15]: 0.25 µg/mL; MIC50 [16, 27]: >8 µg/mL; MIC100 [16, 27]: >8 µg/mL; MIC [16]: 4 µg/mL
MRRYNVNKGKSAKKFRKQVSKTKVANLRSNPMRGGWRL [AGT915] | >64 µg/mL | 1 µg/mL | 1 µg/mL |  |  |  |  |  |  |  |  | >64 µg/mL | 4 µg/mL | 1 µg/mL | >64 µg/mL |  |  | 2 | 2 µg/mL | 0.25 µg/mL | 
